The values below come from publication PMC7856885 (Advanced Science, 2020).

Series [1] can be described thus: Solubility in PBS at 3 mg mL^−1 (appearance of the solution). It counts as physicochemical.
Series [2] concerns U251. The series is described as follows: MTS cell proliferation assay. It counts as cell-based. Conditions: Homo sapiens. As to the method:
(§1) The human GBM cell lines (U87MG and U251) were respectively obtained from the American Type Culture Collection (ATCC, Manassas, VA) and the China Academic Sinica Cell Repository (Shanghai, China) and cultured in accordance with the protocol of the supplier. In brief, all the cell lines were maintained in Dulbecco's Modified Eagle Medium (DMEM; Gibco, Grand Island, NY) supplemented with 10% fetal bovine serum (FBS; Biological Industries, Kibbutz Beit Haemek, Israel). Cells were incubated in a humidified incubator at 37 °C under 5% CO2 atmosphere.
(§2) The cells treated with PBS and 100 × 10^−6 м SynB3‐PVGLIG were used as the control and the dual‐functional peptide control, respectively. After treatment, the cells were washed with PBS three times and subsequently incubated with 20 µL Cell Titer 96AQeuous One Solution Reagent (Promega, Madison, WI, USA) for 2 h at 37 °C. The absorbance was measured on a Synergy microplate reader (BioTek Instruments, Winooski, VT) at 490 nm. All the data were obtained from three independent experiments performed in three wells. The absorbance of cells in the control group was taken as 100% viability, and the inhibition rate of cell viability was counted by using the following equation: % Inhibition rate = (Absorbancecontrol − Absorbancetest)/(Absorbancecontrol − Absorbanceblank) × 100.
(Formazan colour is commonly taken as a measure of viable cells.)

The test system of series [3] is U87MG. The series is described as follows: MTS cell proliferation assay. It is filed as cell-based. The following applies: Homo sapiens, U-87 MG, linear regression. On the procedure:
as §1, §2

The subject of series [4] is U87MG+MMP‐2 siRNA. The series can be described thus: MTS cell proliferation assay. It counts as cell-based. The following applies: Homo sapiens. On the procedure:
as §1
(§3) Homo‐MMP‐2 siRNA and nonsilencing siRNA were designed and synthesized by GenePharma (Suzhou, China). The transfection of siRNA was performed using the X‐tremeGENE siRNA transfection reagent (Roche, Mannheim, Germany) in accordance with the manufacturer's instructions. Before transfection, all the cell lines were inoculated at a density of 5 × 10^5 cells per well in a 6‐well plate. After incubation overnight, the cells were washed with fresh DMEM medium without FBS. At the same time, the reagent of transfection was mixed with homo‐MMP‐2 siRNA or nonsilencing siRNA (50 × 10^−9 м) for 15 min at a room temperature. The solution of the transfection complex was then added into the cell for 24 h. As a negative control group, a nonsilencing siRNA was transfected in the cell line in order to eliminate the influence of the transfection reagent.
as §2

The test system of series [5] is U251+MMP‐2 siRNA. The series can be described thus: MTS cell proliferation assay. It is filed as cell-based. Conditions: Homo sapiens. As to the method:
as §1, §3, §2

Series [6] can be described thus: Real‐time fluorescence imaging (Cy5) and biodistribution analysis. It counts as in vivo, U87MG xenograft nude mice. The following applies: Cy5‐labeled; for Drug distribution at the tumor site in the brain: 5.25 µmol/5 mL kg^−1. As to the method:
An untreated group was administered with physiological saline as a control. Real‐time fluorescence images were captured and analyzed using the IVIS Lumina Imaging System (PerkinElmer, Waltham, MA). […] At 0.5, 2, 4, 12, 24 and 48 h after administration, 3 mice were taken from each group to capture real‐time fluorescence images of the tumor and drug distribution, and the images were analyzed by the IVIS Lumina Imaging System. The excitation and emission quantitative wavelengths used were 640 nm and 700 nm, respectively. At the end of each experiment, animals were euthanized and their brains, lungs, hearts, livers, and kidneys were harvested and further tested by the IVIS Lumina imaging system to determine the drug distribution in tissue from each organ.

Series [7] is described as follows: tumor‐free (normal) brain tissue of nude mice with orthotopic U87MG transplantation after i.v. injection. Conditions: BALB/C athymic nude mice, up to 12 h.
A short description of series [8]: tumor tissue from brains of nude mice with orthotopic U87MG transplantation after i.v. injection. Conditions: BALB/C athymic nude mice, up to 12 h.
The test system of series [9] is MMP‐2. The series is described as follows: recombinant human MMP‐2 protein (5 ng µL^−1), activated with 4‐aminophenylmercuric acetate. The following applies: 37 °C, up to 3 h.
Series [10] is described as follows: Cerebral distribution: free PTX in tumor and tumor‐free brain tissue by HPLC/MS. It is filed as in vivo, nude mice with orthotopic U87MG transplantation. On the procedure:
PTX levels in the mouse brains were measured by the HPLC/MS method. […] Tumor‐free brain tissue as well as the tumor were isolated and weighed separately. The tissue was placed on a 35 mm dish and washed with PBS on ice. The tissue was then cut into small pieces with a surgical scissor and transferred into a 1.5 mL centrifuge tube. Appropriate amounts of 50% methanol were added into the tube to prepare the tissue suspension (0.2 g mL^−1). The tissue suspensions were thoroughly homogenized by an ultrasonic cell disrupter. Thereafter, the tissue homogenates were centrifuged at 10 000 × g for 30 min. The precipitate was removed, and the supernatant was collected for further content analysis by HPLC/MS. […] The drug response values were obtained and analyzed.

In series [11] the target is T1, recombinant human MMP‐2 protein (Homo sapiens, UniProt P08253).
T1 construct: purchased PeproTech (Rocky Hill, NJ, USA)
T1 sequence (P08253 110-660): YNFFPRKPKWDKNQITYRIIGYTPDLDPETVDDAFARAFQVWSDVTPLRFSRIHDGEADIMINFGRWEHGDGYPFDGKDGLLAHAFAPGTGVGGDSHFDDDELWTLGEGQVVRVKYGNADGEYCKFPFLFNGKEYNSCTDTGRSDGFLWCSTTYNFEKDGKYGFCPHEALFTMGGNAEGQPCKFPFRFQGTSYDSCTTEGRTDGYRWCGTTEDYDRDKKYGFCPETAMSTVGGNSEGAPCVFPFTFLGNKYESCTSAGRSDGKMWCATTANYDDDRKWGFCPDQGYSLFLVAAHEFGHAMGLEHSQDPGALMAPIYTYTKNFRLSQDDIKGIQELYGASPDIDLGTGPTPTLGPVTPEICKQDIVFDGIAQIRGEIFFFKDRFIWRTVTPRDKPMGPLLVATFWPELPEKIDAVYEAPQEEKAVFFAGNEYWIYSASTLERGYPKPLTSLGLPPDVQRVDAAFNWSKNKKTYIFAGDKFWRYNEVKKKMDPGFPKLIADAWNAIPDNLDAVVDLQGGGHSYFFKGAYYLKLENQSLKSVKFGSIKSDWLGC
The series is described as follows: Release study: cleavage by MMP‐2, HPLC/MS. It is filed as in vitro ADME. As to the method: The recombinant human MMP‐2 protein with 62.0 kDa molecular weight was purchased from PeproTech (Rocky Hill, NJ, USA). To observe the ability of cleavage in vitro, MMP‐2 was incubated with 4‐aminophenylmercuric acetate (7 × 10^−3 M) at 37 °C for 1 h. […] The reacting solution (50 µL) was then collected and analyzed through HPLC/MS. The spectra data were collected at 220 nm using gradient solvent conditions. BEH C18, 1.7 × 10^−6 м, 100 × 2.1 mm column was used. The chromatographic conditions used for the analyses were: solvent A – 0.1% formic acid in water; solvent B – 0.1% formic acid in acetonitrile: 0–15 min: 2% MeCN, 15–18 min: 100% MeCN, 18–20 min: 2% MeCN, with a flow rate of 0.3 mL min^−1.

Where [12] appears, read: 5.25 µmol/5 mL kg^−1, tail vein.

pIC50: −log10 of the molar value. “Also recorded” adds a separate entry of the source. Read-outs that look alike come from different tables or passages of the source. Residues, ends and D or L forms follow the SMILES beside them. *: point of attachment. X1 = CC(=O)O[C@H]1C(=O)[C@@]2(C)[C@H]([C@H](OC(=O)c3ccccc3)[C@]3(O)C[C@H](OC(=O)[C@H](OC(=O)CC(=O)*)[C@@H](NC(=O)c4ccccc4)c4ccccc4)C(C)=C1C3(C)C)[C@]1(OC(C)=O)CO[C@@H]1C[C@@H]2O

Take `Cn1nnc2c(C(N)=O)ncn2c1=O` [TMZ, Temozolomide]: in series [1] (3 mg mL^−1 in PBS, visual), the “Solubility in PBS (appearance)” value is reported as “nearly insoluble”. For the same compound, the pIC50 was 2.51 in [2] (U-251, U251, 4 h); 3.18 in series [2] (U-251, U251, 24 h); 3.67 in series [2] (U-251, U251, 48 h); 3.41 in [3] (4 h); 3.42 in series [3] (24 h); 3.29 in [3] (48 h). Moreover, the pIC50 in [4] (4 h) was 3.33; in [4] (24 h), 3.38; in series [4] (48 h) it was 3.55; in series [5] (4 h), 2.48; in series [5] (24 h) it was 3.06; in [5] (48 h), 3.88.

On to `CC(=O)O[C@H]1C(=O)[C@@]2(C)[C@H]([C@H](OC(=O)c3ccccc3)[C@]3(O)C[C@H](OC(=O)[C@H](O)[C@@H](NC(=O)c4ccccc4)c4ccccc4)C(C)=C1C3(C)C)[C@]1(OC(C)=O)CO[C@@H]1C[C@@H]2O` [PTX, Paclitaxel], for which the “Solubility in PBS (appearance)” value in [1] is on record as “nearly insoluble”. The pIC50 is 3.74 in [2] (U-251, U251, 4 h); 4.33 in series [2] (U-251, U251, 24 h); 4.56 in [2] (U-251, U251, 48 h); 3.83 in series [3] (4 h); 4.33 in series [3] (24 h); 4.50 in series [3] (48 h). The pIC50 in series [4] (4 h) was 3.68; in series [4] (24 h), 4.43; in series [4] (48 h) it was 4.54; in series [5] (4 h), 3.87; in [5] (24 h), 4.50; in series [5] (48 h) it was 4.63. The “Drug distribution at the tumor site in the brain” value in [6] was “no drug distribution was detected”. Further, in series [6] (setting [12]), the “Tissues in which the fluorescence signal (Cy5) was mainly detected” value is “lungs, liver, and kidneys”.

As for PVGLIG-RRLSYSRRRF, the fragment found result in series [7] is listed as “free PTX, 2 h”; in series [8] it was “free PTX, 2 h”; in [9] it was “PVG‐PTX, 0.5 h; also recorded: SynB3-LIG”.

As to `CC[C@H](C)[C@H](NC(=O)[C@H](CC(C)C)NC(=O)CNC(=O)[C@@H](NC(=O)[C@@H]1CCCN1C(=O)CC(=O)O[C@@H](C(=O)O[C@H]1C[C@@]2(O)[C@@H](OC(=O)c3ccccc3)[C@@H]3[C@]4(OC(C)=O)CO[C@@H]4C[C@H](O)[C@@]3(C)C(=O)[C@H](OC(C)=O)C(=C1C)C2(C)C)[C@@H](NC(=O)c1ccccc1)c1ccccc1)C(C)C)C(=O)NCC(=O)N[C@@H](CCCNC(=N)N)C(=O)N[C@@H](CCCNC(=N)N)C(=O)N[C@@H](CC(C)C)C(=O)N[C@@H](CO)C(=O)N[C@@H](Cc1ccc(O)cc1)C(=O)N[C@@H](CO)C(=O)N[C@@H](CCCNC(=N)N)C(=O)N[C@@H](CCCNC(=N)N)C(=O)N[C@@H](CCCNC(=N)N)C(=O)N[C@@H](Cc1ccccc1)C(=O)O` [SynB3‐PVGLIG‐PTX, PTX‐2′OH‐malonyl‐PVGLIG‐SynB3] (X1-PVGLIGRRLSYSRRRF-OH), the mean diameter of nanocomplex came to 162 nm. Also, the “PTX concentration in tumor, times that of the normal brain” value in series [10] (2 h after single dose 5.25 µmol/5 mL kg^−1 i.v.) is reported as 20 times. Moreover, the “Concentration of PTX in the tumor tissue, finally reached” value in [10] (last time point (sampling 2, 4, 12 h), single dose 5.25 µmol/5 mL kg^−1 i.v., HPLC/MS, n = 5) stood at 456.32 µg G^−1. Moreover, the “Cleavage without MMP‐2” value in series [11] (2.5 mg mL^−1, no MMP‐2, HPLC/MS, neither PVG‐PTX nor free PTX detected) was “could not be cleaved”. The “Percentage of conjugate cleaved by MMP‐2” value in series [11] (2.5 mg mL^−1 conjugate, activated MMP‐2 5 ng µL^−1, 0.5 h, HPLC/MS) was “about 41.18%”. Moreover, the “Drug distribution at the tumor site in the brain” value in series [6] is reported as “mainly distributed in the transplanted gliomas”. Also, the “Fluorescent signal at 48 h” value in series [6] (5.25 µmol/5 mL kg^−1, 48 h) is listed as “could still be detected in brain”. In addition, the “Tissues in which the fluorescence signal (Cy5) was mainly detected” value in [6] (setting [12]) is “bladder, liver, kidneys, lungs, and brain”. Moreover, the “Time at which the fluorescent signal in the brain tumor peaked” value in [6] (5.25 µmol/5 mL kg^−1, tail vein, imaged 0.5–48 h) amounted to 12 h.

By pIC50 is commonly meant the IC50 on a negative log10 scale, so that one unit is a factor of ten.
